Where a name gives a salt, the structure may show the parent alone.
Experiments:
[1] = Stability of lyophilized amorphous BMY-28142 salts (dry, sealed vials); assay type: physicochemical; conditions: for expected shelf life: extrapolated from stability tests; for remaining at 168 h: 1 week; for remaining at 336 h: 2 weeks; for remaining at 672 h: 4 weeks; for remaining at 1008 h: 6 weeks; for remaining at 2184 h: 13 weeks; for remaining at 6888 h: 41 weeks
Experimental: […] of BMY-28142 Zi was dissolved qs to 33 ml with 1.9 ml of 1N-HCl and water for injection (pH=2.0).
One ml portion (approximately 65 mg/ml) of the solution were placed into 10cc flint vials which were loosely stoppered with split lyphlization stoppers, frozen to -40° C. and lyphilized at a shelf temperature of 0° C. for 24 hours, then at 24° C. for 24 hours and at 32.2° C. for four hours. The vials were then sealed with aluminum closures and tested for stability at 56°, 45° and 37° C.

various organisms = conditions: U.S. Pat. No. 4,406,899; amorphous zwitterionic form; cited from earlier work
[2] = assay type: physicochemical; conditions: water for injection
Experimental: 375 mg L(+)-Arginine for injection is reconstituted with 4.45 ml of sterile water for injection. The solution is taken up in a syringe and is added to a vial containing lyophilized BMY-28142-2HCl having an activity of 500 mg activity per vial. This solution produces a reconstituted solution suitable for injection which has an activity of about 100 mg BMY-28142 per milliliter.
Control of the amount of water used for dilution permitted the attainment of high concentrations up to 400 mg BMY-28142 per ml.

[3] = dry lyophilized solid, 45° C., second lot, separately prepared

**Q.** Which results are given for `CO/N=C(\C(=O)NC1C(=O)N2C(C(=O)[O-])=C(C[N+]3(C)CCCC3)CSC12)c1csc(N)n1` (stereo not drawn) [Di-HCl, 7-[α-(2-aminothiazol-4-yl)-α-(Z)-methoxyiminoacetamido]-3-[(1-methyl-1-pyrrolidinium)methyl]-3-cephem-4-carboxylate]?
**A.** stability of lyophile compared with other lyophilized amorphous salts [1]: unexpectedly more stable than the lyophilized, amorphous sesqui-H3 PO4, mono-H2 SO4 and mono-HCl salts; expected shelf life ([1]; 4° C.): at least 24 months; remaining at 168 h ([1]; dry lyophilized solid, 45° C.): 99.8%; remaining at 168 h [1, 3]: 100%; remaining at 336 h ([1]; dry lyophilized solid, 45° C.): 97.2%; remaining at 336 h ([1]; dry lyophilized solid, 56° C., second lot, separately prepared): 91.8%; remaining at 672 h ([1]; dry lyophilized solid, 37° C.): 98.6%; remaining at 672 h [1, 3]: 92.5%; remaining at 4320 h ([1]; dry lyophilized solid, 6 months, 25° C., second lot, separately prepared): 100%; remaining at 1008 h ([1]; dry lyophilized solid, 37° C., second lot, separately prepared): 97.2%; remaining at 1344 h ([1]; dry lyophilized solid, 8 weeks, 56° C.): 87%; remaining at 2184 h ([1]; dry lyophilized solid, 37° C.): 95.5%; remaining at 2184 h ([1]; dry lyophilized solid, 45° C.): 91.6%; remaining at 4368 h ([1]; dry lyophilized solid, 26 weeks, 45° C.): 87.7%; remaining at 6888 h ([1]; dry lyophilized solid, 25° C.): 98.1%; remaining at 6888 h ([1]; dry lyophilized solid, 37° C.): 91.7%; remaining at 8736 h ([1]; dry lyophilized solid, 52 weeks, 25° C., second lot, separately prepared): 100%; expected shelf life ([1]; room temperature): at least 12 months

**Q.** Which “antibacterial spectrum of activity” value (various organisms) does the source give for `CO/N=C(\C(=O)N[C@@H]1C(=O)N2C(C(=O)[O-])=C(C[N+]3(C)CCCC3)CS[C@H]12)c1csc(N)n1` [BMY-28142, 7-[α-(2-aminothiazol-4-yl)-α-(Z)-methoxyiminocetamido]-3-[(1-methyl-1-pyrrolidinium)methyl]-3-cephem-4-carboxylate] here?
**A.** broader spectrum activity than ceftazidime and cefotaxime

**Q.** What about the “concentration attained on reconstitution” value [2] of the same compound?
**A.** up to 400 mg per ml

**Q.** What does the source list for `CO/N=C(\C(=O)NC1C(=O)N2C(C(=O)[O-])=C(C[N+]3(C)CCCC3)CSC12)c1csc(N)n1` (stereo not shown) [Sesqui-PO4]?
**A.** remaining at 168 h ([1]; dry lyophilized solid, 56° C.): 75%; remaining at 1008 h ([1]; dry lyophilized solid, 37° C.): 79%

Reference: patent US5095011A, “Lyophilized cefepime dihydrochloride for parenteral use” (priority 1990, dated 1992)
